Measurements: patent US20240174680A1, “CDK2 INHIBITORS AND METHODS OF USING THE SAME” (Cedilla Therapeutics, Inc., priority 2021, published 2024)

Target: CDK2/Cyclin E1 (Homo sapiens, UniProt P24941)
Experiment: CDK2/Cyclin E1 Caliper LabChip EZ Reader mobility shift assay
Assay type: biochemical
Set-up: purchased Eurofins 14-475
Settings: read-out: Caliper Assay (CDK2/CCNE1): IC50
Method in brief: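 Substrate-to-product conversion of fluorescent peptide (1.5 μM final) read by capillary electrophoresis after 100 min reaction, EDTA-quenched. Enzyme (2.5 nM final) and ATP (100 μM final) were preincubated 30 min with inhibitor dilutions first. % activity vs concentration fitted four-parameter for IC50.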

Row | Compound | IC50
1 | CNC(=O)C(NC(=O)[C@@H]1CN(C(=O)c2cncs2)CC12CN(C(=O)C(C)(C)C1CC1)C2)c1cccc(C2CCOCC2)n1 (stereo partly drawn) [I-338] | > 10 µM
2 | CNC(=O)[C@@H](NC(=O)[C@@H]1CN(C(=O)c2cncs2)CC12CN(C(=O)[C@H]1CC1(C)C)C2)[C@@H](C)OCC1CCCC2(CC2)C1 (stereo partly drawn) [I-370] | ≤ 0.01 µM
3 | CO[C@H]1COCC[C@H]1NC(=O)[C@H]1CN(C(=O)c2cnn(Cc3ccccc3)c2)CC12CN(C(=O)[C@H]1CC1(C)C)C2 [I-134B] | > 10 µM
4 | C[C@@H](OCC1CCCCC1)[C@H](NC(=O)[C@@H]1CN(C(=O)c2cncs2)CC12CN(C(=O)[C@H]1CC1(C)C)C2)C(=O)N1CCC(c2cnc[nH]2)CC1 [I-406] | ≤ 0.01 µM
5 | C[C@@H](OCc1ccccc1)[C@H](NC(=O)[C@@H]1CN(C(=O)c2cncs2)CC12CN(C(=O)[C@H]1CC1(C)C)C2)C(=O)N(C)C [I-416] | 0.01 to 0.1 µM
6 | C[C@@H](OCC1CCOCC1)[C@H](NC(=O)[C@@H]1CN(C(=O)c2cncs2)CC12CN(C(=O)[C@H]1CC1(C)C)C2)C(=O)N1CCC(n2ccnc2)CC1 [I-440] | 0.01 to 0.1 µM
7 | CNC(=O)[C@@H](NC(=O)[C@@H]1CN(C(=O)c2scnc2C(C)(C)C)CC12CN(C(=O)[C@H]1CC1(C)C)C2)[C@@H](C)OCC1CCCCC1 [I-231A] | 1 to 10 µM
8 | C[C@@H](OCC1CCCCC1)[C@H](NC(=O)C1CN(C(=O)c2cncs2)CC12CN(C(=O)[C@H]1CC1(C)C)C2)C(=O)N1CCOCC1 (stereo partly drawn) [I-138] | ≤ 0.01 µM
9 | CNC(=O)[C@@H](NC(=O)[C@@H]1CN(C(=O)Cc2cnn(Cc3ccccc3)c2)CC12CN(C(=O)[C@H]1CC1(C)C)C2)[C@@H](C)OCc1ccccc1 [I-373] | > 10 µM
10 | CNC(=O)[C@@H](NC(=O)[C@H]1CN(C(=O)c2cnn(Cc3ccccc3)c2)CC12CN(C(=O)C(C)(C)C)C2)[C@@H](C)OCc1ccccc1 [I-65B] | > 10 µM
11 | CNC(=O)[C@@H](NC(=O)[C@@H]1CN(C(=O)c2cnn(Cc3ccccc3)c2)CC12CN(C(=O)[C@H]1CC1(C)C)C2)[C@@H](C)OCC12CC(C(=O)OC)(C1)C2 [I-299] | 0.01 to 0.1 µM
12 | COC(=O)[C@H](CO)NC(=O)[C@@H]1CN(C(=O)c2cnn(Cc3ccccc3)c2)CC12CN(C(=O)[C@H]1CC1(C)C)C2 [I-209A] | 1 to 10 µM
13 | C[C@@H](OCc1ccccc1)[C@H](NC(=O)C1CN(C(=O)c2cnn(Cc3ccccc3)c2)CC12CN(C(=O)[C@H]1CC1(C)C)C2)C(=O)N1CC2(CCC2)C1 (stereo partly drawn) [I-106] | 0.01 to 0.1 µM
14 | C[C@@H](OCC1CCCCC1)[C@H](NC(=O)[C@@H]1CN(C(=O)c2cnn(Cc3ccccc3)c2)CC12CN(C(=O)[C@H]1CC1(C)C)C2)C(=O)N1CCC(c2ccncc2)CC1 [I-300] | ≤ 0.01 µM
15 | CNC(=O)[C@@H](NC(=O)[C@@H]1CN(C(=O)c2sc(COC)nc2C)CC12CN(C(=O)[C@H]1CC1(C)C)C2)[C@@H](C)OCC1CCCCC1 [I-162A] | 0.01 to 0.1 µM
16 | CO[C@H]1COCC[C@@H]1NC(=O)[C@@H]1CN(C(=O)c2cnn(Cc3ccccc3)c2)CC12CN(C(=O)[C@H]1CC1(C)C)C2 [I-131A] | > 10 µM
17 | CNC(=O)[C@@H](NC(=O)[C@H]1CN(C(=O)c2cnn(Cc3ccccc3)c2)CC12CN(C(=O)C1(C3CC3)CC1)C2)[C@@H](C)OCc1ccccc1 [I-114B] | > 10 µM
18 | C[C@@H](OCC1CCOCC1)[C@H](NC(=O)[C@@H]1CN(C(=O)c2cncs2)CC12CN(C(=O)[C@H]1CC1(C)C)C2)C(=O)N1CCC[C@H](COC(F)(F)F)C1 [I-327] | 0.01 to 0.1 µM
19 | COC[C@H]1CCCN(C(=O)[C@H](C)NC(=O)[C@@H]2CN(C(=O)c3cncs3)CC23CN(C(=O)[C@H]2CC2(C)C)C3)C1 [I-325] | 1 to 10 µM
20 | CNC(=O)[C@@H](NC(=O)[C@H]1CN(C(=O)c2cnn(Cc3ccccc3)c2)CC12CN(C(=O)[C@H]1CC1(C)C)C2)[C@@H](C)OCC(C)C [I-137B] | 1 to 10 µM
21 | CNC(=O)[C@@H](NC(=O)[C@H]1CN(C(=O)c2cnc(COC(C)(C)C)s2)CC12CN(C(=O)[C@H]1CC1(C)C)C2)[C@@H](C)OCC1CCCCC1 [I-175B] | 0.1 to 1 µM
22 | CNC(=O)[C@@H](NC(=O)[C@@H]1CN(C(=O)c2cncs2)CC12CN(C(=O)[C@H]1CC1(C)C)C2)[C@@H](C)OC(C)C1CCCCC1 (stereo partly drawn) [I-279] | 0.01 to 0.1 µM
23 | CNC(=O)[C@@H](NC(=O)[C@H]1CN(C(=O)c2cnn(Cc3ccccc3)c2)CC12CN(C(=O)C1(CCOC)CC1)C2)[C@@H](C)OCc1ccccc1 [I-102B] | > 10 µM
24 | CNC(=O)[C@@H](NC(=O)[C@@H]1CN(C(=O)c2cnn(Cc3ccccc3)c2)CC12CN(C(=O)CC1CC1)C2)[C@@H](C)OCC1CCCCC1 [I-56A] | 0.1 to 1 µM

Row | Compound | IC50
25 | C[C@@H](OCc1ccccc1)[C@H](NC(=O)C1CN(C(=O)c2cnn(Cc3ccccc3)c2)CC12CN(C(=O)[C@H]1CC1(C)C)C2)C(=O)NCCO (stereo partly drawn) [I-30] | 0.01 to 0.1 µM
26 | CC1(C)C[C@@H]1C(=O)N1CC2(CN(C(=O)c3cnn(Cc4ccccc4)c3)C[C@H]2C(=O)N2CCCC(Cc3ccccc3)C2)C1 (stereo partly drawn) [I-91A] | > 10 µM
27 | C[C@@H](OCC1CCC(F)(F)CC1)[C@H](NC(=O)[C@@H]1CN(C(=O)c2cncs2)CC12CN(C(=O)[C@H]1CC1(C)C)C2)C(=O)N1C2CCC1COC2 [I-468] | ≤ 0.01 µM
28 | COC[C@H]1CCCN(C(=O)[C@@H](C)NC(=O)[C@@H]2CN(C(=O)c3cncs3)CC23CN(C(=O)[C@H]2CC2(C)C)C3)C1 [I-324] | 1 to 10 µM
29 | CNC(=O)[C@@H](NC(=O)[C@@H]1CN(C(=O)c2cnn(Cc3ccccc3)c2)CC12CN(C(=O)N(C)C(C)C)C2)[C@@H](C)OCC1CCCCC1 [I-274, (S)-6-(1-benzyl-1H-pyrazole-4-carbonyl)-N8-((2S,3R)-3-(cyclohexylmethoxy)-1-(methylamino)-1-oxobutan-2-yl)-N2-isopropyl-N2-methyl-2,6-diazaspiro[3.4]octane-2,8-dicarboxamide] | 0.1 to 1 µM
30 | CNC(=O)C(NC(=O)[C@@H]1CN(C(=O)c2cncs2)CC12CN(C(=O)[C@H]1CC1(C)C)C2)c1ncc(C2CCCCC2)o1 (stereo partly drawn) [I-426] | 0.1 to 1 µM
31 | CC1(C)C[C@@H]1C(=O)N1CC2(CN(C(=O)c3cnn(Cc4ccccc4)c3)C[C@H]2C(=O)N[C@@H]2CC[C@@H]2O)C1 [I-201B] | > 10 µM
32 | CNC(=O)C(NC(=O)[C@@H]1CN(C(=O)c2cncs2)CC12CN(C(=O)[C@H]1CC1(C)C)C2)c1cccc(N2CC3(COC3)C2)n1 (stereo partly drawn) [I-427] | 1 to 10 µM
33 | C[C@@H](OCC12CCC(CC1)OC2)[C@H](NC(=O)[C@@H]1CN(C(=O)c2cnco2)CC12CN(C(=O)[C@H]1CC1(C)C)C2)C(C)(C)O [I-450] | 0.1 to 1 µM
34 | CCCCC1CC1C(=O)N1CC2(CN(C(=O)c3cnn(Cc4ccccc4)c3)C[C@H]2C(=O)N[C@H](C(=O)NC)[C@@H](C)OCc2ccccc2)C1 (stereo partly drawn) [I-94A] | > 10 µM
35 | CC(O[C@H](C)[C@H](NC(=O)[C@@H]1CN(C(=O)c2cncs2)CC12CN(C(=O)[C@H]1CC1(C)C)C2)C(=O)N1CCCCC1)C1CCCCC1 (stereo partly drawn) [I-284, (8S)—N-((2S,3R)-3-(1-cyclohexylethoxy)-1-oxo-1-(piperidin-1-yl)butan-2-yl)-2-((S)-2,2-dimethylcyclopropane-1-carbonyl)-6-(thiazole-5-carbonyl)-2,6-diazaspiro[3.4]octane-8-carboxamide] | 0.01 to 0.1 µM
36 | C[C@@H](OCC1CCCCC1)[C@H](NC(=O)C1CN(C(=O)c2cnn(Cc3ccccc3)c2)CC12CN(C(=O)[C@H]1CC1(C)C)C2)C(=O)N1CCCC(CO)C1 (stereo partly drawn) [I-105] | ≤ 0.01 µM
37 | CNC(=O)[C@@H](NC(=O)[C@@H]1CN(C(=O)c2cncs2)CC12CN(CC1CCCC1)C2)[C@@H](C)OCC12CCC(CC1)OC2 [I-344, (S)—N-((2S,3R)-3-(2-oxabicyclo[2.2.2]octan-4-ylmethoxy)-1-(methylamino)-1-oxobutan-2-yl)-2-(cyclopentylmethyl)-6-(thiazole-5-carbonyl)-2,6-diazaspiro[3.4]octane-8-carboxamide] | > 10 µM
38 | CNC(=O)[C@@H](NC(=O)[C@@H]1CN(C(=O)c2cnn(Cc3ccccc3)c2)CC12CN(C(=O)[C@H]1CC1(C)C)C2)[C@@H](C)OCC1CCC(F)(F)CC1 [I-202] | ≤ 0.01 µM
39 | CNC(=O)[C@@H](NC(=O)[C@@H]1CN(C(=O)c2cncs2)CC12CN(CC1CCCO1)C2)[C@@H](C)OCC1CCCCC1 (stereo partly drawn) [I-352] | > 10 µM
40 | CNC(=O)[C@@H](NC(=O)[C@@H]1CN(C(=O)c2cnn(Cc3ccccc3)c2)CC12CN(C(=O)NC1CC1)C2)[C@@H](C)OCC1CCCCC1 [I-268, (S)-6-(1-benzyl-1H-pyrazole-4-carbonyl)-N8-((2S,3R)-3-(cyclohexylmethoxy)-1-(methylamino)-1-oxobutan-2-yl)-N2-cyclopropyl-2,6-diazaspiro[3.4]octane-2,8-dicarboxamide] | > 10 µM
41 | COC[C@H]1CCCN(C(=O)[C@@H](NC(=O)[C@@H]2CN(C(=O)c3cncs3)CC23CN(C(=O)[C@H]2CC2(C)C)C3)[C@@H](C)OCC2CCC3(CCC3)CC2)C1 [I-390] | ≤ 0.01 µM
42 | C[C@@H](O)[C@H](NC(=O)[C@@H]1CN(C(=O)c2cnn(C)c2)CC12CN(C(=O)[C@H]1CC1(C)C)C2)C(=O)N1CCCCC1 [I-305] | > 10 µM
43 | CNC(=O)[C@@H](NC(=O)[C@@H]1CN(C(=O)c2cnn(Cc3ccccc3)c2)CC12CN(C(=O)C(C)(C)C1CC1)C2)[C@@H](C)OCc1ccccc1 [I-276] | 1 to 10 µM
44 | CNC(=O)[C@H](CS(=O)(=O)Cc1ccccc1)NC(=O)[C@@H]1CN(C(=O)c2cnn(Cc3ccccc3)c2)CC12CN(C(=O)[C@H]1CC1(C)C)C2 [I-226] | 1 to 10 µM
45 | Cc1noc([C@H](C)NC(=O)[C@@H]2CN(C(=O)c3cnn(Cc4ccccc4)c3)CC23CN(C(=O)[C@H]2CC2(C)C)C3)n1 [I-158A] | > 10 µM
46 | C[C@@H](OCC1CCCCC1)[C@H](NC(=O)[C@@H]1CN(C(=O)c2cnn(Cc3ccccc3)c2)CC12CN(C(=O)[C@H]1CC1(C)C)C2)C(N)=O [I-200] | ≤ 0.01 µM
47 | COC[C@H]1CCCN(C(=O)[C@@H](NC(=O)[C@@H]2CN(C(=O)c3cncs3)CC23CN(C(=O)[C@H]2CC2(C)C)C3)[C@@H](C)O[C@@H](C)C2CCCCC2)C1 [I-467] | ≤ 0.01 µM
48 | Cc1cc(C(=O)N2CC(C(=O)N[C@H](C(=O)N3CCCCC3)[C@@H](C)OCC3CCCCC3)C3(C2)CN(C(=O)[C@H]2CC2(C)C)C3)sn1 (stereo partly drawn) [I-311] | ≤ 0.01 µM
